Test results reported in PMC10003107, “Selectivity of Hydroxamate- and Difluoromethyloxadiazole-Based Inhibitors of Histone Deacetylase 6 In Vitro and in Cells” (International Journal of Molecular Sciences, 2023).
Read-outs that look alike come from different tables or passages of the source.

Assays:
tubulin acetylation = test: Tubulin acetylation in RPMI-8226 cells by quantitative Western blotting; format: cell-based
HDAC10 = molecular target: T1, HDAC10 (Homo sapiens, UniProt Q969S8); test: In vitro deacetylation assay, HDAC10 (fluorescein-labeled N8-acetylspermidine, RP-HPLC); format: biochemical
T1 construct: HDAC10 1 – 667 Open Biosystems; Strep-FLAG-HALO (N); made in house; host or cells: HEK293/T17
T1 sequence (Q969S8 1-667): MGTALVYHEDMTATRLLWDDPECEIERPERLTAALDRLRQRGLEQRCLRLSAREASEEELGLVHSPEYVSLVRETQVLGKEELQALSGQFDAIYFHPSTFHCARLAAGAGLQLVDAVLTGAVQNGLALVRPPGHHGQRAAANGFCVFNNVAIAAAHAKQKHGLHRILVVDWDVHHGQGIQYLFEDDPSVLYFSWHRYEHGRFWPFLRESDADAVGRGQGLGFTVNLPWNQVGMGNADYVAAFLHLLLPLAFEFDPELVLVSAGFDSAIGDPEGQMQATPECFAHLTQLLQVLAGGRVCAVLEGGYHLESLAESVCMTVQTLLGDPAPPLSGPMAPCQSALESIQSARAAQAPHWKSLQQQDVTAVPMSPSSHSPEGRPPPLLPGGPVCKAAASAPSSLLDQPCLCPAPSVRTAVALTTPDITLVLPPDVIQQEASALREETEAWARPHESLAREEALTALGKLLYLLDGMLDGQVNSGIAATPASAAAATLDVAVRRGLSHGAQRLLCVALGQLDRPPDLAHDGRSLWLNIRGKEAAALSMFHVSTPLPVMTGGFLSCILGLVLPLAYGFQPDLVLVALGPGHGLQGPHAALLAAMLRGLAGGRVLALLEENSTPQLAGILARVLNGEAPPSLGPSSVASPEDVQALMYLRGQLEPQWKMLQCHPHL

RPMI-8226 lymphoblasts = test: MTT viability assay; format: cell-based; conditions: RPMI-8226 cells, 48 h; for EC50: read-out: EC50 cytotoxicity (MTT viability)
Experimental: (§1) RPMI-8226 lymphoblasts (ATTC #CCL-155) were used to assess the cytotoxicity of tested compounds. […] Dilution series of tested inhibitors were prepared as 10x stock solutions in PBS and 10 μL was added to cells and incubated under a 5% CO2 atmosphere at 37 °C, for 2 days. Following incubation, 10 μL of MTT reagent (3-(4,5-dimethylthiazol-2-yl)-2,5-diphenyltetrazolium bromide, 5 mg/mL in PBS, Sigma Aldrich) was added to each well and incubated for 90 min, 37 °C, 5% CO2. […]

MTT viability assay = format: cell-based; conditions: human, RPMI-8226 lymphoblasts, RPMI-8226 cells, read-out: EC50 cytotoxicity (MTT viability)
Experimental: as §1

histone H3 acetylation = test: Histone H3 (K9/K14) acetylation in RPMI-8226 cells by Western blotting; format: cell-based; conditions: 6 h, Western blot
HDAC1 [1] = molecular target: T2, HDAC1 (Homo sapiens, UniProt Q13547); test: In vitro deacetylation assay, HDAC1 (RHKK substrate); format: biochemical; conditions: for IC50: purified human HDAC1, RHK[AcK]-AMC (RHKK) substrate
T2 construct: HDAC1 1-482 Addgene; Strep-FLAG-HALO (N); made in house; host or cells: HEK293/T17

HDAC1 [2] = molecular target: T2, HDAC1; test: In vitro deacetylation assay, HDAC1 (GAK substrate); format: biochemical; conditions: for IC50: purified human HDAC1, GAK substrate 10 µM
HDAC1-nanoLuc = HDAC1-nanoLuc (Homo sapiens, UniProt Q13547); test: nanoBRET target engagement assay, HDAC1; format: cell-based; conditions: HEK293T/17 cells stably expressing HDAC1-nanoLuc, 2 h
HDAC6 = molecular target: T3, HDAC6 (Homo sapiens, UniProt Q9UBN7); test: In vitro deacetylation assay, HDAC6 (GAK substrate); format: biochemical; conditions: purified human HDAC6, Ac-GAK-Ac-AMC (GAK) substrate 10 µM
T3 construct: HDAC6 2-1215 Open Biosystems; Strep-FLAG-HALO (N); made in house; host or cells: HEK293/T17
T3 sequence (Q9UBN7 2-1215): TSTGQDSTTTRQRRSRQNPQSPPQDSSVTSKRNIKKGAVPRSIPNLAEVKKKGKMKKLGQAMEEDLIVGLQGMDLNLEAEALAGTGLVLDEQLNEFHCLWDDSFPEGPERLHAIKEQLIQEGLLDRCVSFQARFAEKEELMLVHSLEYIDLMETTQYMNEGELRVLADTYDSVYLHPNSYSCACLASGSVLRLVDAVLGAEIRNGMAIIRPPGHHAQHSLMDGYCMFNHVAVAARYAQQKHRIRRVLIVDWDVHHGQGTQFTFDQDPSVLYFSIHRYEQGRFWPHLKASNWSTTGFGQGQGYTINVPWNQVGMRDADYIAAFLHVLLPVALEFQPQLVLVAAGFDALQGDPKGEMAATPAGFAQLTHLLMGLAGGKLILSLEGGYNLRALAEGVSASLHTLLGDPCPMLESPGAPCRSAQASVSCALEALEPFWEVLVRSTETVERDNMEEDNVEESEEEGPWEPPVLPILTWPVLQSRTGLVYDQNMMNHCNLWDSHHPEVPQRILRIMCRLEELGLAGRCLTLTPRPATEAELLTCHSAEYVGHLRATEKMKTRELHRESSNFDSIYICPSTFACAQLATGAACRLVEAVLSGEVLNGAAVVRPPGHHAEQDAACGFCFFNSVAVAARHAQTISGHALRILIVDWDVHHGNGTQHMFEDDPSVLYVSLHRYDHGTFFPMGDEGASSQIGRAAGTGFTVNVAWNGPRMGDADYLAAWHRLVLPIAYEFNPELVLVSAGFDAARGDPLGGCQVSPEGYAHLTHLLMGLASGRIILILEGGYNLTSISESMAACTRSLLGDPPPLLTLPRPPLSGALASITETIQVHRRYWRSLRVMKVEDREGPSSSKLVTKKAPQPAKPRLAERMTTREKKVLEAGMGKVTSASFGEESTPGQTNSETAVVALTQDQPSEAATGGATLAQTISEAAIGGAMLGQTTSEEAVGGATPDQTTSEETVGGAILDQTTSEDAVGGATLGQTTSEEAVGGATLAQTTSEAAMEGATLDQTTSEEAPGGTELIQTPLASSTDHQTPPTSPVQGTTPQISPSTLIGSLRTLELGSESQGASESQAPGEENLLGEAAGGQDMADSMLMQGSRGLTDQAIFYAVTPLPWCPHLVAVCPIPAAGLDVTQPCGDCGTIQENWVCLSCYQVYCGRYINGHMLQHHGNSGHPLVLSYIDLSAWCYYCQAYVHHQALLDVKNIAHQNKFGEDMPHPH

[3] = Homo sapiens, RPMI-8226, 6 h, read-out: IC50 tubulin deacetylation (relative tubulin acetylation), RPMI-8226 cells, 6 h, Western blot; called EC50 in text

T2 sequence (Q13547 whole entry): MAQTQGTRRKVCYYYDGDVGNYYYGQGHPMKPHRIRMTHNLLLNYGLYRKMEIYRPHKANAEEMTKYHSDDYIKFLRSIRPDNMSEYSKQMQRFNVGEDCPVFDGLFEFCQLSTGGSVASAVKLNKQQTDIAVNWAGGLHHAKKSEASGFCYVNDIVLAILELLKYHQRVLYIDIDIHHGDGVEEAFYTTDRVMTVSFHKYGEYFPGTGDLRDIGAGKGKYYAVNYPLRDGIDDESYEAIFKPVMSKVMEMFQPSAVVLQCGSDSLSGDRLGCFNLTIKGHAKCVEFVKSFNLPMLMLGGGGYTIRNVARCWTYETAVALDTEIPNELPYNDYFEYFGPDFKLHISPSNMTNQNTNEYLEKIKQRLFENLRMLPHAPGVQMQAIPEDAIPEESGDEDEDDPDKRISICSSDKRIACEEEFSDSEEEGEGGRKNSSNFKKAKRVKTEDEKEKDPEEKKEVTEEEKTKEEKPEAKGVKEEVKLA
HDAC1-nanoLuc, sequence (Q13547 whole entry): as above

| Compound | IC50 (tubulin acetylation; [3]) | EC50 (RPMI-8226 lymphoblasts) | EC50 at 48 h (MTT viability assay) | effect on histone H3 (K9/K14) acetylation, class I HDAC inhibition (histone H3 acetylation) | IC50 (HDAC1 [1]) | IC50 (HDAC1 [2]) | also measured |
| --- | --- | --- | --- | --- | --- | --- | --- |
| O=C(CCCCCCNC(=O)c1cnc(N(c2ccccc2)c2ccccc2)nc1)NO [ACY-1215, rocilinostat] | 619 nM | 2900 nM | 2890 nM | the most potent class I HDAC inhibitors |  |  | IC50 (HDAC10): 18.2 nM |
| CCCCN(Cc1ccc(C(=O)NO)cc1)C(=O)Nc1ccccc1 [Next A, Nexturastat A] | 249 nM | 2800 nM | 2810 nM |  |  |  |  |
| CC(/C=C/C(=O)NO)=C\[C@@H](C)C(=O)c1ccc(N(C)C)cc1 [TSA, Trichostatin A] |  | 240 nM | 237 nM | the most potent class I HDAC inhibitors |  |  | IC50 (tubulin acetylation; Homo sapiens, RPMI-8226, 6 h, read-out: IC50 tubulin deacetylation (relative tubulin acetylation)): 136 nM; IC50 (tubulin acetylation; Homo sapiens, RPMI-8226, 6 h, read-out: potency to inhibit tubulin deacetylation): 136 nM; IC50 (tubulin acetylation; read-out: IC50 tubulin deacetylation (relative tubulin acetylation)): 140 nM |
| CN1CCc2c(c3ccccc3n2Cc2ccc(C(=O)NO)cc2)C1 [Tub A, Tubastatin A] |  |  | 21600 nM |  |  |  | IC50 (tubulin acetylation; Homo sapiens, RPMI-8226, 6 h; read-out: IC50 tubulin deacetylation (relative tubulin acetylation)): 985 nM; effect on cell viability (RPMI-8226 lymphoblasts; MTT): less pronounced effects on cell viability at high inhibitor concentrations |
| O=C(CCCCCCC(=O)Nc1ccc([C@H]2O[C@@H](CSc3nc(-c4ccccc4)c(-c4ccccc4)o3)C[C@@H](c3ccc(CO)cc3)O2)cc1)NO [Tubacin] | 1710 nM | 6500 nM | 6510 nM |  | 15100 nM | 102 nM | EC50 (HDAC1 [2]; Figure 2C, in vitro data (GAK) in μM): 0.1 µM; IC50 (tubulin acetylation; read-out: IC50 tubulin deacetylation (relative tubulin acetylation); RPMI-8226 cells, 6 h, Western blot; called EC50 in text): 1700 nM; EC50 (HDAC1-nanoLuc): 13200 nM |
| CS(=O)(=O)N(Cc1ccc(C(=O)NO)cn1)c1cccc(Cl)c1 [compound 6, 6-((N-(3-Chlorophenyl)methylsulfonamido)methyl)-N-hydroxynicotinamide] |  |  | 998 nM |  | 281 nM | 49.2 nM | SI (HD6/HD1) RHKK (HDAC1 [1]; ratio of IC50 HDAC1 (RHKK) divided by IC50 HDAC6): 803; IC50 (HDAC6): 0.35 nM; SI (HD6/HD1) GAK, in vitro (HDAC1 [2]; ratio of IC50 HDAC1 (GAK) divided by IC50 HDAC6): 141; IC50 (HDAC10; purified human HDAC10, read-out: IC50 HDAC10): 68.3 nM; SI (HD6/HD10) (HDAC10; ratio of IC50 HDAC10 divided by IC50 HDAC6): 195 |
